Values of other authors as cited in patent US20050244368A1, “Pre-endoscopic use of polyethylene glycol compositions” (priority 2004, published 2005).

Details: % of adult patients (Zwas et al., 1996)

colonic mucosal changes mimicking inflammatory bowel disease: up to 24%
SMILES: O=P(O)(O)O [sodium phosphate]
